Laboratory results published in patent US10413612B2, “Method of treating cancer with a biomaterial and a toll-like receptor agonist” (Dana-Farber Cancer Institute, Inc., priority 2016, dated 2019).
Several values for one entry are separate records, joined by “and”; a condition that tells them apart may be missing. Equal entries are not always repeated.

How the values were obtained:
TLR8 = target: T1, TLR8 (Homo sapiens, UniProt Q9NR97); details: cited from earlier work
T1 construct: expressed in transfected cells; host or cells: HEK293
T1 sequence (Q9NR97 27-1041): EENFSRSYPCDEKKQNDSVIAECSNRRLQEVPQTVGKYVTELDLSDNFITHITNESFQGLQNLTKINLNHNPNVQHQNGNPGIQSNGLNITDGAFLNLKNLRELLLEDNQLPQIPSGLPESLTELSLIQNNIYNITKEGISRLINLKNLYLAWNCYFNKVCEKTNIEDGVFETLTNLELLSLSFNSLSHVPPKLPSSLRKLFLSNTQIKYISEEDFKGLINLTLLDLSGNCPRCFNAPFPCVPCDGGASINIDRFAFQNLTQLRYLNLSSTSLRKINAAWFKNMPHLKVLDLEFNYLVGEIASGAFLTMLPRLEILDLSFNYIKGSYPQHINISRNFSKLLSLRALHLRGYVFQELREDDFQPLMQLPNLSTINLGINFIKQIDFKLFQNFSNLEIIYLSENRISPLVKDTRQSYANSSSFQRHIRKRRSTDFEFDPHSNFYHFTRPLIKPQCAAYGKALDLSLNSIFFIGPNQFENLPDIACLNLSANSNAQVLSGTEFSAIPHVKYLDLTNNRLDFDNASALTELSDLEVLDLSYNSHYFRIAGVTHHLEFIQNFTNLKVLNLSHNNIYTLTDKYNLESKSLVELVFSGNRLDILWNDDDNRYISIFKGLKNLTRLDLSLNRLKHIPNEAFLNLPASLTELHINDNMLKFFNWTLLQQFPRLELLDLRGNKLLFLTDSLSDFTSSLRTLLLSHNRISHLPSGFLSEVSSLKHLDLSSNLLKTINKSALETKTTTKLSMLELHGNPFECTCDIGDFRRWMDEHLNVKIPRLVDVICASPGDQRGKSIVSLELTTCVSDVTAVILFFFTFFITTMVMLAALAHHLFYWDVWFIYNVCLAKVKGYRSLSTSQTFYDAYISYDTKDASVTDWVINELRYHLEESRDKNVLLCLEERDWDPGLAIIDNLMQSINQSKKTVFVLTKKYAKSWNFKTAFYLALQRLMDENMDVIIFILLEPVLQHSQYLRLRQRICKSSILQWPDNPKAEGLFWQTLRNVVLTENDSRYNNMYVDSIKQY

TLR7 [1] = target: T2, TLR7 (Homo sapiens, UniProt Q9NYK1); details: TLR7-transfected HEK293 cells; cited from earlier work
T2 construct: expressed in transfected cells; host or cells: HEK293
T2 sequence (Q9NYK1 27-1049): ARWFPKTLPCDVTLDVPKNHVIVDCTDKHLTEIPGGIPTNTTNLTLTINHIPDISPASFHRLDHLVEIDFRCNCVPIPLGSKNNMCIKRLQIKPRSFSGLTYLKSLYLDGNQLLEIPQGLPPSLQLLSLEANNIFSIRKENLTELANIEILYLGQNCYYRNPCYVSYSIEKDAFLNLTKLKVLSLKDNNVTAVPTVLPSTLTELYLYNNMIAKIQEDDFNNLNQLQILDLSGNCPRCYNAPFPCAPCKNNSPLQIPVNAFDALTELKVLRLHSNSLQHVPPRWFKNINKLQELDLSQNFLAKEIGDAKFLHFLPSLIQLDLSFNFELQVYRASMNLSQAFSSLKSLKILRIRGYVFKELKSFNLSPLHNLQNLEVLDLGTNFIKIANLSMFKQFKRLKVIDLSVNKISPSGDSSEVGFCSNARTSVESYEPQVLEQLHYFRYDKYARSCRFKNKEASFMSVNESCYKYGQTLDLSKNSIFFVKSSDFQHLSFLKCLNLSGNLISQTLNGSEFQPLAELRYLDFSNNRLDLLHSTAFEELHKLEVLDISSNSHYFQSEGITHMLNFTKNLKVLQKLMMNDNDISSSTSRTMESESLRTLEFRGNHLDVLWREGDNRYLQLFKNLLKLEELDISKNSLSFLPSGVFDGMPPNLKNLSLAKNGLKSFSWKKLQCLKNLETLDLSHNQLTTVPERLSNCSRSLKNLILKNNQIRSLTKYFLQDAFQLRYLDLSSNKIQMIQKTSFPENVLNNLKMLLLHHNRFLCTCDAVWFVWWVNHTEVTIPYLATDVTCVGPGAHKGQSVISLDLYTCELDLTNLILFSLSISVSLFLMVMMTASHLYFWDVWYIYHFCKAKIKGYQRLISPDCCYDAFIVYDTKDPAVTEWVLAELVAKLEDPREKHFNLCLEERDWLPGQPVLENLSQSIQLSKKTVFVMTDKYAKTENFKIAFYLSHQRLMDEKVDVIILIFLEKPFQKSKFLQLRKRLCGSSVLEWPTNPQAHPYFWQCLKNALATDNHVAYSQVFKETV

TLR7 [2] = target: T2, TLR7; details: cited from earlier work
[3] = In vivo release study (fluorescence IVIS imaging); parameters: species or system non-tumor-bearing mice; details: mouse, in vivo
Description: To evaluate the in vivo release profiles of Cy7 carboxylic acid (a model compound for R848), anti-PD-1, IL-15sa, and 2′3′-cGAMP, hydrogels containing the fluorophore or one of the fluorescently labeled payloads were surgically implanted into non-tumor-bearing mice.
The loading and release properties of the hydrogel were examined in additional experiments. […] It was then confirmed that the hydrogel extends the release of the small molecules and biologics in vivo. Cy7 carboxylic acid (Cy7-CA) was used as a model small molecule payload, as its physical properties are very similar to those of resiquimod (R848). Cy7-CA was administered to non-tumor-bearing mice, either in solution or loaded in a scaffold placed by the fourth mammary fat pad. The mice were assessed by fluorescence IVIS imaging (FIG. 37B), and the data were quantified (FIG. 37C). Whereas a loss of ˜60% of the signal was detected within two hours of administration of the fluorophore in solution, this amount of signal decay required 24 hours for the fluorophore loaded in the hydrogel. Over this time course, there was a […] for the latter group, on average.
To confirm that the hydrogel sustains the release of the small molecule and biologics in vivo, fluorescently labeled versions of 2 ? […]

4T1-Luc2 cells [4] = experiment: Non-resected orthotopic 4T1-Luc2 tumors: peritumoral hydrogel or intratumoral injection; type: in vivo, mice; details: single intratumoral (IT) injection
Description: In certain embodiments, intraoperative placement of the immunotherapy-loaded hydrogel is required for therapeutic benefit.

4T1-Luc2 cells [5] = experiment: Tumor re-challenge of surviving mice; type: in vivo; details: mice with durable survival after loaded hydrogel
Procedure: The wound was closed with medical clips.
To gain insights into the soluble factors that are associated with the activation of innate and adaptive immune cells, the levels of cytokines in peripheral blood were measured. At multiple time points post-surgery, plasma was collected and subsequently analyzed by multiplexing laser bead technology. […] Indeed, the induction of a memory response was confirmed by re-challenging the surviving mice, 100% of which rejected the freshly inoculated 4T1-Luc2 cells (FIG. 94A).

[6] = tested on: 4T1-Luc2 syngeneic breast cancer cells; details: for survival with compromised immune system: NK, CD8+ T or CD4+ T cells depleted or IFNAR1 neutralized; for survival benefit as innate immune activator component: hydrogel with IL-15sa and anti-PD-1 (devices 1, 14-16); for efficacy (tumor recurrence, metastasis, survival), in words: scaffold placed in tumor resection site 10 days after inoculation
Procedure: Seven-week-old female Balb/c mice were inoculated orthotopically with 100,000 4T1-Luc2 syngeneic breast cancer cells (into the fourth mammary fat pad). After 10 days, the mice were anesthetized, tumors were surgically resected, and compositions were placed in the resection site. […] The order of surgeries avoided systematic error by dividing up the groups. Standard follow-up care (wound clips, analgesic) was provided.
For the metastatic breast cancer model, 10^5 4T1-Luc2 or 4T1 cells (in 30 μl DPBS) were inoculated orthotopically into the fourth mammary pad of mice to generate a local tumor mass. Cells were injected without any incision to expose the fat pad. Mice were randomly assigned to treatment groups, and surgery was performed 10 days after tumor inoculation. For the metastatic melanoma and lung cancer models, 10^6B16-BL6 or 5×10^5 LLC cells (in 100 μl DPBS) were inoculated subcutaneously in mice to generate a local tumor mass. Mice were randomly assigned to treatment groups, and surgery was performed when tumor volumes reached ˜600 mm^3. While mice were kept under anesthesia at 2% isoflurane, the tumor was resected, and the hydrogel was placed in the site of the resultant cavity at the time of surgery. The wound was closed with medical clips. Control experiments were performed in which therapy was administered in solution at the site of surgery, intraperitoneally, or intravenously. For tumor re-challenge experiments, 10^4 4T1-Luc2 cells were inoculated in the contralateral fourth mammary fat pad. The surgeries were performed independently at least three times, and the surgeon was often blinded.
After surgery, mice were inspected weekly for tumor recurrence and distal metastasis by bioluminescence imaging (BLI). To this end, 10 min after intraperitoneal injection of D-luciferin (150 mg/kg), a substrate of Luc2, the mice were anesthetized with 2% isoflurane and imaged using an IVIS Spectrum In Vivo Imaging System (Perkin Elmer).
A series of compositions described above in Table 2 were evaluated in viva. In each group of evaluations, seven-week-old female Balb/c mice were inoculated orthotopically with 100,000 4T1-Luc2 syngeneic breast cancer cells (into the fourth mammary fat pad). After 10 days, mice were anesthetized, tumors were surgically resected, and the composition was placed in the resection site. Tumor relapse and metastasis were monitored via imaging over the course of 6 weeks.
Female BALB/cJ mice were inoculated orthotopically with 4T1-Luc2 breast cancer cells in their fourth mammary fat pad. Nine days later, the mice were imaged by bioluminescent IVIS imaging to confirm that the size of the tumors was consistent across animals to enable randomization into groups. On day 10 post-tumor inoculation, tumors (˜100 mm^3) were resected, and device 1 was placed in the tumor resection site. Controls included no treatment (sham), empty hydrogel (device 8/hydrogel 4), or delivery of the triple combination in solution (S+I+P)—via intraperitoneal injection, intravenous injection, or local administration.

For `CCCCNc1nc(N)c2nc(O)n(Cc3ccc(C(=O)NCC(=O)O)cc3)c2n1` [CL264], the “concentration without stimulation of TLR8” value (TLR8) is listed as over 10 µg/mL, the “activating concentration, times less than imiquimod” value (TLR7 [1]) is listed as 5-10 times and the “concentration inducing NF-κB activation” value (TLR7 [1]) is listed as 0.1 µM.
For `CCCCNc1nc(N)c2nc(O)n(Cc3ccc(C(=O)NCC(=O)NCCCNCCCCNCCCN)cc3)c2n1` [CL307, N1-glycinyl[4-((6-amino-2-(butylamino)-8-hydroxy-9H-purin-9-yl)methyl)benzoyl]spermine], the “concentration inducing robust NF-κB activation” value (TLR7 [2]) is listed as ≤ 20 nM and ≤ 10 ng/ml.
With `C[N+]1=C(/C=C/C2=CC(=C/C=C3/N(CCCCCC(=O)O)c4ccccc4C3(C)C)CCC2)C(C)(C)c2ccccc21.[Cl-]` [Cy7-CA, Cy7 carboxylic acid] the “increase in signal, hydrogel vs solution” value [3] was “roughly three”.
In the case of `CCOCc1nc2c(N)nc3ccccc3c2n1CC(C)(C)O` [Device R848, resiquimod], the survival (4T1-Luc2 cells [4]) is reported as “did not prolong survival”, the “surviving mice that rejected / survived re-challenge” value (4T1-Luc2 cells [5]) is reported as 100% and the “survival with compromised immune system” value [6] is reported as “exhibited reduced survival”. The “survival benefit by mode of administration” value ([6]; hydrogel vs solution (weekly IV, weekly IP, local with empty hydrogel)) was “survival benefit was observed only when R848 was loaded in the hydrogel”, the “survival benefit as innate immune activator component” value [6] was “conferred meaningful benefit” and the “tolerability (body weight)” value ([6]; mouse, in vivo) was “well tolerated”. For the same compound, the “efficacy (tumor recurrence, metastasis, survival), in words” value [6] was “prevented most effectively” and the survival benefit ([6]; three consecutive daily IP injections (200 μg)) was “failed to confer robust survival benefit”.
For `Cc1cccc(-c2[nH]c(CNc3ccccc3F)nc2-c2ccc3ncnn3c2)n1` [EW7197], the “efficacy of hydrogel with IL-15 superagonist, anti-PD-1 and the small molecule” value ([6]; small molecule dissolved in DMSO) was “provided less efficacious results”.
With `Nc1ncnc2c1ncn2C1O[C@@H]2CO[P@@](=O)([S-])O[C@H]3[C@@H](O)[C@H](n4cnc5c(N)ncnc54)O[C@@H]3CO[P@@](=O)([S-])O[C@@H]1[C@@H]2O.[Na+].[Na+]` (stereo partly shown) [STING-RR, 2′3′-c-di-AM(PS)2 (Rp,Rp)] the survival (4T1-Luc2 cells [4]) was “did not prolong survival”, the “surviving mice that rejected / survived re-challenge” value (4T1-Luc2 cells [5]) was 100% and the “survival with compromised immune system” value [6] was “exhibited reduced survival”. For the same compound, the “efficacy (tumor recurrence, metastasis, survival), in words” value [6] was “prevented most effectively”.
For `CCOC(=O)C1=Cc2ccc(-c3cccc(C#N)c3)cc2N=C(N)C1` [TL8-506], the “potency in inducing NF-κB activation relative to CL075” value (TLR8; TLR8-transfected HEK293 cells) is listed as about 25 × and the “potency in inducing NF-κB activation relative to R848” value (TLR8; TLR8-transfected HEK293 cells) is listed as about 50 ×.
In the case of IL-21: pleiotropic cytokine, the “survival benefit as cytokine component” value ([6]; hydrogel with 2′3′-cGAMP and anti-PD-1 (devices 1, 13)) is reported as “had little impact”.
In the case of “polyinosinic:polycytidylic acid [poly(I:C)]”, the “survival benefit as innate immune activator component” value [6] is reported as “had little impact”.
